Measured values as given in ChEMBL document CHEMBL1136566, “Synthesis, opioid receptor binding, and functional activity of 5'-substituted 17-cyclopropylmethylpyrido[2',3':6,7]morphinans” (Bioorg Med Chem Lett, 2003).

Legend:
[1] = Selectivity ratio between delta and mu opioid receptor in corresponding mouse vas-deferens and guinea-pig ileal longitudinal muscle; type: functional
[2] = target: Opioid receptors; mu & delta (Rattus norvegicus) (UniProt P33533+P33535); assay: Selectivity ratio was measured between mu and delta opioid receptor; type: protein assay
[3] = target: Delta-type opioid receptor (Mus musculus) (UniProt P32300); assay: Antagonist potency against delta opioid receptor was measured in mouse vas-deferens using DPDPE; type: functional
Mu-type opioid receptor [4] = target: Mu-type opioid receptor (Rattus norvegicus, UniProt P33535); assay: Binding affinity to mu opioid receptor was measured using [3H]DAMGO
[5] = target: T1, Kappa-type opioid receptor (Cavia porcellus, UniProt P41144); assay: Binding affinity for kappa opioid receptor was measured using [3H]U-69593
[6] = target: Delta-type opioid receptor (Rattus norvegicus, UniProt P33533); assay: Binding affinity to delta opioid receptor was measured using [3H]DADLE
[7] = target: Mu-type opioid receptor (Cavia porcellus) (UniProt P97266); assay: Antagonist potency against mu opioid receptor was measured in guinea-pig ileal longitudinal muscle using PL-017; type: functional
[8] = Selectivity ratio was measured between kappa and delta opioid receptor
Mu-type opioid receptor [9] = target: T2, Mu-type opioid receptor (Cavia porcellus, UniProt P97266); assay: Antagonist activity on agonist stimulated [35S]GTP-gamma-S, binding in guinea pig caudate membranes (10 uM DAMGO as the agonist ligand for mu-receptor); type: functional, cell membranes
[10] = target: T1, Kappa-type opioid receptor; assay: Antagonist activity on agonist stimulated [35S]GTP-gamma-S, binding in guinea pig caudate membranes (10 uM U69,593 as the agonist ligand for kappa-receptor); type: functional, cell membranes
Mu-type opioid receptor [11] = target: T2, Mu-type opioid receptor; assay: Antagonist activity on agonist stimulated [35S]GTP-gamma-S, binding in guinea pig caudate membranes (10 uM DAMGO as the agonist ligand for Mu-receptor); type: functional, cell membranes

Chain of Opioid receptors; mu & delta (Rattus norvegicus) (P33533 whole entry, looked up): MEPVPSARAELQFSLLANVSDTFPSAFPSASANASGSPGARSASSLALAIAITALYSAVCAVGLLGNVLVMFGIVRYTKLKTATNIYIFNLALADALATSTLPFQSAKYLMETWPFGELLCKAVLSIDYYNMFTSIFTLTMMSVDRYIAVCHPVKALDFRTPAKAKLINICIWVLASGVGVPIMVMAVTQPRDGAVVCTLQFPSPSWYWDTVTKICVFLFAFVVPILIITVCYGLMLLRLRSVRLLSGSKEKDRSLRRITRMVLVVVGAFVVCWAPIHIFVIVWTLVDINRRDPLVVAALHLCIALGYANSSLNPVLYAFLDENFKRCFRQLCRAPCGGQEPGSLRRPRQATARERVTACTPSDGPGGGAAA
Chain of Opioid receptors; mu & delta (Rattus norvegicus) (P33535 whole entry, looked up): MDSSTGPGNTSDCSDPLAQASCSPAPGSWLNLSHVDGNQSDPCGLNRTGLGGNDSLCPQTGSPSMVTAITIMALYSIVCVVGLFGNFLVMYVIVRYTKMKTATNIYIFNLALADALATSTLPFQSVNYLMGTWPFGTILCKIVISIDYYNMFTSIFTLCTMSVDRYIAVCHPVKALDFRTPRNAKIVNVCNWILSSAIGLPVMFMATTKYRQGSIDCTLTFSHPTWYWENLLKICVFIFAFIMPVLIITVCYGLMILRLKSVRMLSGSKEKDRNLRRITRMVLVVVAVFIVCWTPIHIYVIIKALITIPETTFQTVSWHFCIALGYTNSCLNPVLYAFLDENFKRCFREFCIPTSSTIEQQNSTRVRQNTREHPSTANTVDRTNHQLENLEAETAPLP
Chain of Delta-type opioid receptor (P33533 whole entry): as the sequence (P33533 whole entry, looked up) above
Chain of Mu-type opioid receptor (Cavia porcellus) (P97266 whole entry): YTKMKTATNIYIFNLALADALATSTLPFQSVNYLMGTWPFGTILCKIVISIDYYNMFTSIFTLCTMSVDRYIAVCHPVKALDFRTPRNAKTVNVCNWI
T2 sequence (P97266 whole entry): as above
Chain of Delta-type opioid receptor (Mus musculus) (P32300 whole entry): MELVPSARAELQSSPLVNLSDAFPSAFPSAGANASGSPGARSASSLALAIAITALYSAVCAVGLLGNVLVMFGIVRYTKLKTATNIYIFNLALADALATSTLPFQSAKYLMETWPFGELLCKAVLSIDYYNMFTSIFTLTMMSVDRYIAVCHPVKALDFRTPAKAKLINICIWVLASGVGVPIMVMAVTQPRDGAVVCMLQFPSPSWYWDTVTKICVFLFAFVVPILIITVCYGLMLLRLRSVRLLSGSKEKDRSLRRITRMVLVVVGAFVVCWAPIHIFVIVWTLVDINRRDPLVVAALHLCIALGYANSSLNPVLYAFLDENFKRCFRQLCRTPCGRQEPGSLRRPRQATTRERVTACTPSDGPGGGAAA
T1 sequence (P41144 whole entry): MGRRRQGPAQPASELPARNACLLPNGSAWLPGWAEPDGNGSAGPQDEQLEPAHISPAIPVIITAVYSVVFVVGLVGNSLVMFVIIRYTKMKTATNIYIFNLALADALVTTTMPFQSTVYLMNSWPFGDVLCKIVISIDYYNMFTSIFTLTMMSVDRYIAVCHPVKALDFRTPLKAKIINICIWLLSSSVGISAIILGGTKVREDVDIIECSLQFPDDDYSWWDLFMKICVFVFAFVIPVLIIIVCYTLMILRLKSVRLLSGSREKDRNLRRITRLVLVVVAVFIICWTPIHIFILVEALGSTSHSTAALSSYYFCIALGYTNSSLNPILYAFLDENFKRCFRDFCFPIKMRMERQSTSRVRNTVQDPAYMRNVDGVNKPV
Chain of Mu-type opioid receptor (Rattus norvegicus, UniProt P33535) (P33535 whole entry): as the sequence (P33535 whole entry, looked up) above

Oc1ccc2c3c1O[C@H]1c4ncc(NCc5ccccc5)cc4C[C@@]4(O)[C@@H](C2)N(CC2CC2)CC[C@]314
Selectivity ratio [1]: 0.9
Selectivity ratio [2]: 11.5
Ke [3]: 6.5 nM
Ki (Mu-type opioid receptor [4]): 15 nM
Ki [5]: 6.7 nM
Ki [6]: 1.3 nM
Ke [7]: 5.9 nM
Selectivity ratio [8]: 5.2

Oc1ccc2c3c1O[C@H]1c4ncc(CNc5ccccc5)cc4C[C@@]4(O)[C@@H](C2)N(CC2CC2)CC[C@]314
Selectivity ratio [1]: 0.9
Selectivity ratio [2]: 3.3
Ke [3]: 6.5 nM
Ki (Mu-type opioid receptor [4]): 6 nM
Ki [5]: 19 nM
Ki [6]: 1.8 nM
Ke [7]: 5.9 nM
Selectivity ratio [8]: 10.6

Oc1ccc2c3c1O[C@H]1c4[nH]c5ccccc5c4C[C@@]4(O)[C@@H](C2)N(CC2CC2)CC[C@]314 [NALTRINDOLE]
Ki (Mu-type opioid receptor [9]): 1.8 nM
Ke [3]: 0.53 nM
Ki [10]: 6 nM

Nc1cnc2c(c1)C[C@@]1(O)[C@H]3Cc4ccc(O)c5c4[C@@]1(CCN3CC1CC1)[C@H]2O5
Selectivity ratio [1]: 1.9
Selectivity ratio [2]: 1.6
Ke [3]: 25 nM
Ke [7]: 48 nM
Selectivity ratio [8]: 1.5

Oc1ccc2c3c1O[C@H]1c4ncc(Br)cc4C[C@@]4(O)[C@@H](C2)N(CC2CC2)CC[C@]314
Selectivity ratio [1]: 10
Selectivity ratio [2]: 12.9
Ke [3]: 3.6 nM
Ki (Mu-type opioid receptor [4]): 15.5 nM
Ki [5]: 55.7 nM
Ki [6]: 1.2 nM
Ke [7]: 36 nM
Selectivity ratio [8]: 46

CCOC(=O)c1cnc2c(c1)C[C@@]1(O)[C@H]3Cc4ccc(O)c5c4[C@@]1(CCN3CC1CC1)[C@H]2O5
Selectivity ratio [1]: 4.4

Oc1ccc2c3c1O[C@H]1c4ncccc4C[C@@]4(O)[C@@H](C2)N(CC2CC2)CC[C@]314
Selectivity ratio [1]: 5.1
Selectivity ratio [2]: 1.9
Selectivity ratio [8]: 11

N#Cc1cnc2c(c1)C[C@@]1(O)[C@H]3Cc4ccc(O)c5c4[C@@]1(CCN3CC1CC1)[C@H]2O5
Selectivity ratio [1]: >22
Selectivity ratio [2]: 3.6
Ke [3]: 44 nM
Ki (Mu-type opioid receptor [4]): 16 nM
Ki [5]: 33.9 nM
Ki [6]: 4.5 nM
Ke [7]: > 1000 nM
Selectivity ratio [8]: 7.5

N=C(N)Nc1cnc2c(c1)C[C@@]1(O)[C@H]3Cc4ccc(O)c5c4[C@@]1(CCN3CC1CC1)[C@H]2O5
Selectivity ratio [2]: 1.4
Ki (Mu-type opioid receptor [11]): 6.1 nM
Ke [3]: 170 nM
Ki (Mu-type opioid receptor [4]): 26 nM
Ki [5]: 0.7 nM
Ki [6]: 18.7 nM
Ke [7]: 500 nM
Selectivity ratio [8]: 0.037
Ki [10]: 1 nM

Oc1ccc2c3c1O[C@H]1c4[nH]c5c(c4C[C@@]4(O)[C@@H](C2)N(CC2CC2)CC[C@]314)C[C@@]1(O)[C@H]2Cc3ccc(O)c4c3[C@@]1(CCN2CC1CC1)[C@H]5O4 [NORBINALTORPHIMINE]
Ki (Mu-type opioid receptor [9]): 14.8 nM
Ki [10]: 0.12 nM

O=[N+]([O-])c1cnc2c(c1)C[C@@]1(O)[C@H]3Cc4ccc(O)c5c4[C@@]1(CCN3CC1CC1)[C@H]2O5
Selectivity ratio [1]: 3.8
Selectivity ratio [2]: 3.2
Ke [3]: 53 nM
Ki (Mu-type opioid receptor [4]): 17.5 nM
Ki [5]: 92 nM
Ki [6]: 5.5 nM
Ke [7]: 200 nM
Selectivity ratio [8]: 17

Oc1ccc2c3c1O[C@H]1c4ncc(-n5cccc5)cc4C[C@@]4(O)[C@@H](C2)N(CC2CC2)CC[C@]314
Selectivity ratio [2]: 30
Ki (Mu-type opioid receptor [11]): 4.2 nM
Ke [3]: 6.6 nM
Ki (Mu-type opioid receptor [4]): 19 nM
Ki [5]: 12.2 nM
Ki [6]: 0.64 nM
Ke [7]: 62 nM
Selectivity ratio [8]: 19
Ki [10]: 8.8 nM
